Patent US8735445B2, “Inhibitors of 15-hydroxyprostaglandin dehydrogenase for stimulating pigmentation of the skin or skin appendages” (L'Oreal, priority 2003, dated 2014)
Like-named read-outs stand apart in the source and are kept apart here.

What was measured:
15-PGDH = molecular target: T1, 15-PGDH (Homo sapiens, UniProt P15428); experiment: 15-PGDH test (spectrophotometric, NADH at 340 nm, PGE2 substrate); assay type: biochemical; conditions: Example I-5
T1 construct: GST (from vector pGEX-4T3); made in house; host or cells: E. coli BL21 DE3plys
T1 sequence (P15428 1-266): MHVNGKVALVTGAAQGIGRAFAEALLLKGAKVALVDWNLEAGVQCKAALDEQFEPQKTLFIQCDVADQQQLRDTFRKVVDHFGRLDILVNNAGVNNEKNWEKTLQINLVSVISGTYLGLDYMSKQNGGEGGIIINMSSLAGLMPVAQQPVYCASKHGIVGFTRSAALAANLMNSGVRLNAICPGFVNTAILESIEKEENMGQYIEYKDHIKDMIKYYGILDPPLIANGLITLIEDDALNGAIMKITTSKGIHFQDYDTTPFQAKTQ
Procedure: The enzyme obtained is at a concentration of 0.3 mg/ml and is blocked at −80° C. This suspension is thawed and stored in ice.
A 100 mM Tris buffer, pH—7.4, containing 0.1 mM of dithiothreitol (D5545, Sigma-Aldrich, L'isle D'Abeau Chesne, BP 701, 38297, Saint Quentin Fallavier), 1.5 mM of 13-NAD (N6522, Sigma-Aldrich, L'isle D'Abeau Chesne, BP 701, 38297, Saint Quentin Fallavier) and 50 μM of prostaglandin E2 (P4172, Sigma-Aldrich, L'isle D'Abeau Chesne, BP 701, 38297, Saint Quentin Fallavier) is prepared.
0.965 ml of this buffer (brought to 37° C. beforehand) is placed in the cuvette of a spectrophotomer (Perkin-Elmer, Lambda 2) thermostated at 37° C., the measuring wavelength of which is set at 340 nm. 0.035 ml of enzyme suspension at 37° C. is placed in the cuvette concomitantly with the recording (increase in optical density at 340 nm).
The maximum reaction rate is recorded.
The assay values (molecules) are compared with the control value (without molecule), and the results are expressed as % of the control value.
The assay is carried out as described in example 4a.
The methodology is that described in example 1-5.

PGF synthase (PGFS) = molecular target: T2, PGF synthase (PGFS) (Homo sapiens, UniProt P42330); experiment: Test on PGFS (PGF synthase; phenanthrenequinone/NADPH, 340 nm); assay type: biochemical
T2 sequence (P42330 1-323): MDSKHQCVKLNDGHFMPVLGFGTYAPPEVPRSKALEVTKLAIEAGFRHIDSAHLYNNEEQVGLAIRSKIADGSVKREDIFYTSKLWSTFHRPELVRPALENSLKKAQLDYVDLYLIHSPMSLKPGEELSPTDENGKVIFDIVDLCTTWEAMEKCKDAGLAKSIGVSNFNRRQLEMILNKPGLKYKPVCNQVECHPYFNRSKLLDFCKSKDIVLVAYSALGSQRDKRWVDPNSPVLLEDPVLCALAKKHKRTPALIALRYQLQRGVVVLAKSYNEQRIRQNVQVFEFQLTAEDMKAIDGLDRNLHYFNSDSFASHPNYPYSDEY
Procedure: The PGF synthase enzyme is obtained as described in FR-A-02/05067, at a concentration of 0.5 mg/ml, in suspension in an appropriate medium, and is blocked at −80° C. For the needs of the test, this suspension is thawed and stored in ice.
Moreover, a 100 mM Tris buffer, pH=6.5, containing 20 μM of 9.10-phenanthrenequinone* (P2896, Sigma-Aldrich, L′ isle D'Abeau Chesne, BP 701, 38297, Saint Quentin Fallavier) and 100 μM of β-NAPDH(N1630, Sigma-Aldrich, L'isle D'Abeau Chesne, BP 701, 38297, Saint Quentin Fallavier), is prepared in a brown bottle (exclusion of light).
*A stock solution having a titer of 1 mM is prepared in absolute ethanol, brought to 40° C.; the flask is placed in an ultrasound tank so as to facilitate solubilization of the product.
0.950 ml of this buffer (brought beforehand to 37° C.) is introduced into the cuvette of a spectrophotometer (Perkin-Elmer, Lambda 2) thermostatically controlled at 37° C., the measuring wavelength of which is set at 340 nm. 0.05 ml of enzymatic suspension at 37° C. is introduced into the cuvette concomitantly with the recording (corresponding to a decrease in optical density at 340 nm). The maximum reaction rate is recorded. […]

melanocyte line MeWo = experiment: Protection of PGF2α in melanocyte line MeWo; assay type: cell-based; conditions: 4 hours, MeWo melanocytes
Procedure: An ampoule of Mewo melanocytes (American type cell collection, HTB-65) is amplified (75 cm^2 flask, Costar), in DMEM medium (Gibco)+10% fetal calf serum+2 mM of L-glutamine+1% of antibiotics (Gibco). After confluence, these cells (48 hours to 72 hours) are resuspended in this same culture medium, after the action of trypsin (according to a procedure conventionally used in cell culture), in a proportion of 600 000 cells per ml.
200 μl of this suspension are introduced into n times 6 wells (n being the total number of assays, i.e., x molecules at 2 concentrations) of a 96-well plate (Costar). The plate is placed in an incubator at 37° C. under 5% CO2.
Preparation, in DMSO of the 1000× stock solutions of the active agents to be evaluated (i.e., 5 and 25 mM).
Removal of the supernatants from the cultures previously prepared (96-well plate), and rinsing with 100 μl/well of DMEM medium+additives (see above description) preheated to 37° C.
Introduction of 100 μl/well of DMEM medium (+additives) containing 0.1 μl of DMSO (control) or 0.1 μl of the stock solution of the active agent to be evaluated (there are 6 assay wells per molecule and per concentration).
Practically 1 ml of solution is prepared for each of the active agents (and per concentration) to be tested, therefore 1 ml of medium+1 μl of DMSO (control) or of 1000× stock solution.
The plate is again placed in an incubator at 37° C. under 5% CO2 for 4 hours, and then a PGF2α assay is carried out on 50 μl of each of the supernatants (of the various assays) by means of an immunoenzymatic kit (according to the supplier's recommendations (PGF2α, EIA kit, ref. 516011, Cayman)).
Results (as % of the amount of PGF2α measured under the control conditions): […]

| Structure (SMILES) | % of the amount of PGF2α measured under the control conditions (melanocyte line MeWo; 5 μM) | % of the amount of PGF2α measured under the control conditions (melanocyte line MeWo; 25 μM) | further results |
| --- | --- | --- | --- |
| O=C1NC(=O)/C(=C/c2ccc(-c3ccc(C(=O)O)cc3)o2)S1 [Compound 1, 4-{5-[(2,4-dioxo-1,3-thiazolidin-5-ylidene)methyl]-2-furyl}benzoic acid] |  |  | IC50 (15-PGDH; read-out: Inhibition 15-PGDH IC50dh): 0.3 µM; IC50 (PGF synthase (PGFS); Example I-5, read-out: Inhibition of PGFS IC50fs): 4 µM |
| COc1ccccc1/C=C(\C#N)c1nn(-c2ccccc2)c(N)c1C#N [Compound 9 of example II] |  |  | IC50 (PGF synthase (PGFS); Example II-2, read-out: Inhibition of PGF synthase IC50fs): > 50 µM |
| COC(=O)c1cc(/N=N/c2ccc(O)c(CC(=O)O)c2)cc(C(=O)OC)c1 [PhCL28A, reference compound] | +43% | +147% |  |
| O=C1NC(=O)/C(=C/c2ccc(-c3ccc(C(=O)O)cc3)o2)S1 [Compound 1a of example I] | +67% | +51% |  |
| O=C1NC(=O)C(=Cc2ccc(-c3ccc(C(=O)O)cc3)o2)S1 [Compound 1 of example I, 4-{5-[(2,4-dioxo-1,3-thiazolidin-5-ylidene)methyl]-2-furyl}benzoic acid] |  |  | IC50fs/IC50dh ratio (15-PGDH; selectivity for 15-PGDH with respect to PGFS): greater than 13 |
